Measured values: patent US10189839B2, “Tricyclic imidazole compounds as inhibitors of tryptophan hydroxylase” (ACTELION PHARMACEUTICALS LTD, priority 2013, dated 2019)

Target: T1, full length human TPH1 (Homo sapiens, UniProt P17752)
T1 construct: To generate the enzyme, full length human TPH1 is cloned into the plasmid pET20b(+); made in house; host or cells: E. coli
T1 sequence (P17752 1-444): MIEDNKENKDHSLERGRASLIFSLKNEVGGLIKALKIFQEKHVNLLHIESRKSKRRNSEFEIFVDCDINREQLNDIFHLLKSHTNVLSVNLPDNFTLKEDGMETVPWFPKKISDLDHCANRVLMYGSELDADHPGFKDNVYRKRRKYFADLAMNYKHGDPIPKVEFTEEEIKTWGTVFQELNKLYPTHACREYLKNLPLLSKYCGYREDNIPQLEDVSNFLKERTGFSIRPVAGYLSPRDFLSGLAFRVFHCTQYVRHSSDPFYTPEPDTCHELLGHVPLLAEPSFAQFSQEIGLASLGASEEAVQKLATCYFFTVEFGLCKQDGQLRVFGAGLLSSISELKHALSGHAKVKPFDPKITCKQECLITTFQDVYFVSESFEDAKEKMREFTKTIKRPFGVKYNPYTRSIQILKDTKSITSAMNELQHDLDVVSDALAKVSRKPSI
Assay: Biochemical in vitro assay using fluorescence readout (TPH1 enzyme activity)
Settings: Table 1, mean where determined several times
Summary of the method: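 E. coli-expressed full-length human TPH1 (40-80 nM), affinity- and size-exclusion-purified, incubated 60 min at 15° C. in 0.1M Tris-HCl pH 7.6 with 1 mM DTT, 0.2 mg/ml catalase, 100 μM 6-methyltetrahydropterine and 40 μM L-tryptophan. 5-Hydroxy-L-tryptophan read by fluorescence (ex 300/em 540 nm) after HClO4 quench; IC50 versus vehicle, mean where repeated.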

Row | IC50 [nM] | Compound
1 | 28 | CN(C)C(=O)c1ccc(OCC(=O)N2CCc3nc4n(c3C2c2sccc2F)CCS4)c(Cl)n1 (centres unmarked) [Example 4.6.1, 6-chloro-5-(2-(5-(3-fluorothiophen-2-yl)-2,3,7,8-tetrahydrothiazolo[2′,3′:2,3]imidazo[4,5-c]pyridin-6(5H)-yl)-2-oxoethoxy)-N,N-dimethylpicolinamide]
2 | 25 | CC(=O)N1CCn2c(nc3c2C(c2ccc(C4CC4)cc2F)N(C(=O)COc2cc(F)cnc2Cl)CC3)C1 (centres unmarked) [Example 5.2.16, 1-(7-acetyl-1-(4-cyclopropyl-2-fluorophenyl)-3,4,6,7,8,9-hexahydropyrido[4′,3′:4,5]imidazo[1,2-a]pyrazin-2(1H)-yl)-2-((2-chloro-5-fluoropyridin-3-yl)oxy)ethanone]
3 | 33 | Cc1nc(C)c(C2c3c(nc4n3CCCC4)CCN2C(=O)COc2ccc(C3CC3)nc2Cl)s1 (centres unmarked) [Example 1.10.8, 2-((2-chloro-6-cyclopropylpyridin-3-yl)oxy)-1-(1-(2,4-dimethylthiazol-5-yl)-3,4,6,7,8,9-hexahydroimi-dazo[1,2-a:5,4-c′]dipyridin-2(1H)-yl)ethanone]
4 | 7 | CCc1nc(C(=O)NC2CC2)ccc1OCC(=O)N1CCc2nc3n(c2C1c1ncc(C2CC2)cc1F)CCCC3 (centres unmarked) [Example 1.3.2, N-cyclopropyl-5-(2-(1-(5-cyclopropyl-3-fluoropyridin-2-yl)-3,4,6,7,8,9-hexahydroimidazo[1,2-a:5,4-c′]dipyridin-2(1H)-yl)-2-oxoethoxy)-6-ethylpicolinamide]
5 | 58 | CS(=O)(=O)Nc1ccc(OCC(=O)N2CCc3nc4n(c3C2c2sccc2F)CCS4)c(Cl)n1 (centres unmarked) [Example 4.6.2, N-(6-chloro-5-(2-(5-(3-fluorothiophen-2-yl)-2,3,7,8-tetrahydrothiazolo[2′,3′:2,3]imidazo[4,5-c]pyridin-6(5H)-yl)-2-oxoethoxy)pyridin-2-yl)methanesulfonamide]
6 | 24 | O=C(NC1CC1)c1ccc(OCC(=O)N2CCc3nc4n(c3C2c2ccc(C3CC3)cc2F)CCCC4)c(Cl)n1 (centres unmarked) [Example 1.8.5, 6-chloro-N-cyclopropyl-5-(2-(1-(4-cyclopropyl-2-fluorophenyl)-3,4,6,7,8,9-hexahydroimidazo[1,2-a:5,4-c′]dipyridin-2(1H)-yl)-2-oxoethoxy)picolinamide]
7 | 12 | CN1CCN(c2ccc(OCC(=O)N3CCc4nc5n(c4C3c3ccc(Cl)cc3F)CCS5)c(Cl)n2)S1(=O)=O (centres unmarked) [Example 4.1.5, 1-(5-(4-chloro-2-fluorophenyl)-2,3,7,8-tetrahydrothiazolo[2′,3′:2,3]imidazo[4,5-c]pyridin-6(5H)-yl)-2-((2-chloro-6-(5-methyl-1,1-dioxido-1,2,5-thiadiazolidin-2-yl)pyridin-3-yl)oxy)ethanone]
8 | 146 | CN(C)C(=O)c1ccc(OC(C)(C)C(=O)N2CCc3nc4n(c3C2c2ccc(Cl)cc2F)CCCC4)c(Cl)n1 (centres unmarked) [Example 1.1.25, 6-chloro-5-((1-(1-(4-chloro-2-fluorophenyl)-3,4,6,7,8,9-hexahydroimidazo[1,2-a:5,4-c′]dipyridin-2(1H)-yl)-2-methyl-1-oxopropan-2-yl)oxy)-N,N-dimethylpicolinamide]
9 | 6 | CCc1nc(C(=O)NC2CC2)ccc1OCC(=O)N1CCc2nc3n(c2C1c1sc(C)nc1C)CCS3 (centres unmarked) [Example 4.5.3, N-cyclopropyl-5-(2-(5-(2,4-dimethylthiazol-5-yl)-2,3,7,8-tetrahydrothiazolo[2′,3′:2,3]imidazo[4,5-c]pyridin-6(5H)-yl)-2-oxoethoxy)-6-ethylpicolinamide]
10 | 7 | CC(=O)N1CCn2c(nc3c2C(c2ccc(Cl)cc2F)N(C(=O)COc2ccc(N4CC(F)(F)C4)nc2Cl)CC3)C1 (centres unmarked) [Example 5.1.1, 1-(7-acetyl-1-(4-chloro-2-fluorophenyl)-3,4,6,7,8,9-hexahydropyrido[4′,3′:4,5]imida-zo[1,2-a]pyrazin-2(1H)-yl)-2-((2-chloro-6-(3,3-difluoroazetidin-1-yl)pyridin-3-yl)oxy)ethanone]
11 | 303 | COC(C)(C)c1ccc(C2c3c(nc4n3CCCC4)CCN2C(=O)COc2ccc(NS(C)(=O)=O)nc2Cl)c(F)c1 (centres unmarked) [Example 1.25.2, N-(6-chloro-5-(2-(1-(2-fluoro-4-(2-methoxypropan-2-yl)phenyl)-3,4,6,7,8,9-hexahydroimidazo[1,2-a:5,4-c′]dipyridin-2(1H)-yl)-2-oxoethoxy)pyridin-2-yl)methanesulfonamide]
12 | 31 | CCc1nc(C(=O)NC2CC2)ccc1OCC(=O)N1CCc2nc3n(c2C1c1ccc(Cl)cc1F)CCS3 (centres unmarked) [Example 4.1.9, 5-(2-(5-(4-chloro-2-fluorophenyl)-2,3,7,8-tetrahydrothiazolo[2′,3′:2,3]imidazo[4,5-c]pyridin-6(5H)-yl)-2-oxoethoxy)-N-cyclopropyl-6-ethylpicolinamide]
13 | 9 | Cc1ccc(C2c3c(nc4n3CCCC4)CCN2C(=O)COc2ccc(N3CCCS3(=O)=O)nc2Cl)c(F)c1F (centres unmarked) [Example 1.9.6, 2-((2-chloro-6-(1,1-dioxidoisothiazolidin-2-yl)pyridin-3-yl)oxy)-1-(1-(2,3-difluoro-4-methylphenyl)-3,4,6,7,8,9-hexahydroimidazo[1,2-a:5,4-c′]dipyridin-2(1H)-yl)ethanone]
14 | 143 | CCc1cc(Cl)ccc1OCC(=O)N1CCc2nc3n(c2C1c1ncc(C2CC2)cc1F)CCNC3 (centres unmarked) [Example 5.4.5, 2-(4-chloro-2-ethylphenoxy)-1-(1-(5-cyclopropyl-3-fluoropyridin-2-yl)-3,4,6,7,8,9-hexahydropyrido[4′,3′:4,5]imidazo[1,2-a]pyrazin-2(1H)-yl)ethanone]
15 | 24 | CC(=O)N1CCn2c(nc3c2C(c2sccc2F)N(C(=O)COc2ccc(C(=O)N(C)C)nc2Cl)CC3)C1 (centres unmarked) [Example 5.13.2, 5-(2-(7-acetyl-1-(3-fluorothiophen-2-yl)-3,4,6,7,8,9-hexahydropyrido[4′,3′:4,5]imidazo[1,2-a]pyrazin-2(1H)-yl)-2-oxoethoxy)-6-chloro-N,N-dimethylpicolinamide]
16 | 10 | CC(=O)N1CCn2c(nc3c2C(c2ccc(C4CC4)cc2F)N(C(=O)COc2cccnc2C(F)(F)F)CC3)C1 (centres unmarked) [Example 5.2.15, 1-(7-acetyl-1-(4-cyclopropyl-2-fluorophenyl)-3,4,6,7,8,9-hexahydropyrido[4′,3′:4,5]imidazo[1,2-a]pyrazin-2(1H)-yl)-2-((2-(trifluoromethyl)pyridin-3-yl)oxy)ethanone]
17 | 11 | CC(=O)N1CCn2c(nc3c2C(c2ncc(C)cc2F)N(C(=O)COc2ccc(N4CCOCC4)nc2Cl)CC3)C1 (centres unmarked) [Example 5.8.1, 1-(7-acetyl-1-(3-fluoro-5-methylpyridin-2-yl)-3,4,6,7,8,9-hexahydropyrido[4′,3′:4,5]imidazo[1,2-a]pyrazin-2(1H)-yl)-2-((2-chloro-6-morpholinopyridin-3-yl)oxy)ethanone]
18 | 126 | Cc1nc(C(F)(F)F)sc1C1c2c(nc3n2CCCC3)CCN1C(=O)COc1ccc(NS(C)(=O)=O)nc1Cl (centres unmarked) [Example 1.18.1, N-(6-chloro-5-(2-(1-(4-methyl-2-(trifluoromethyl)thiazol-5-yl)-3,4,6,7,8,9-hexahydroimidazo[1,2-a:5,4-c′]dipyridin-2(1H)-yl)-2-oxoethoxy)pyridin-2-yl)methanesulfonamide]
19 | 78 | COc1ccc(C2c3c(nc4n3CCCC4)CCN2C(=O)COc2ccc(NS(C)(=O)=O)nc2Cl)c(F)c1 (centres unmarked) [Example 1.21.2, N-(6-chloro-5-(2-(1-(2-fluoro-4-methoxyphenyl)-3,4,6,7,8,9-hexahydroimidazo[1,2-a:5,4-c′]dipyridin-2(1H)-yl)-2-oxoethoxy)pyridin-2-yl)methanesulfonamide]
20 | 16 | CCc1nc(C(=O)NC2CC2)ccc1OCC(=O)N1CCc2nc3n(c2[C@@H]1c1ncc(C2CC2)cc1F)CCS3 [Example 4.2.3, (R)-N-cyclopropyl-5-(2-(5-(5-cyclopropyl-3-fluoropyridin-2-yl)-2,3,7,8-tetrahydrothiazolo[2′,3′:2,3]imidazo[4,5-c]pyridin-6(5H)-yl)-2-oxoethoxy)-6-ethylpicolinamide]
21 | 12 | CCc1nc(C(=O)NC2CC2)ccc1OCC(=O)N1CCc2nc3n(c2C1c1sccc1F)CCCC3 (centres unmarked) [Example 1.14.2, N-cyclopropyl-6-ethyl-5-(2-(1-(3-fluorothiophen-2-yl)-3,4,6,7,8,9-hexahydroimidazo[1,2-a:5,4-c′]dipyridin-2(1H)-yl)-2-oxoethoxy)picolinamide]
22 | 329 | CCc1cc(F)ccc1OCC(=O)N1CCc2nc3n(c2C1c1ncc(C2CC2)cc1F)CCNC3 (centres unmarked) [Example 5.4.4, 1-(1-(5-cyclopropyl-3-fluoropyridin-2-yl)-3,4,6,7,8,9-hexahydropyrido[4′,3′:4,5]imidazo[1,2-a]pyrazin-2(1H)-yl)-2-(2-ethyl-4-fluorophenoxy)ethanone]

Same assay, conditions: Table 2

Row | IC50 [nM] | Compound
23 | 35 | CC(=O)N1CCn2c(nc3c2C(c2cc(C(=O)N(C)C)cs2)N(C(=O)COc2ccc(N4CCOCC4)nc2Cl)CC3)C1 (centres unmarked) [Example 5.3.2, 5-(7-Acetyl-2-(2-((2-chloro-6-morpholinopyridin-3-yl)oxy)acetyl)-1,2,3,4,6,7,8,9-octahydropyrido[4′,3′:4,5]imidazo[1,2-a]pyrazin-1-yl)-N,N-dimethylthiophene-3-carboxamide]
